Assays:
[1] = system: men with mild to moderate androgenic alopecia (AGA); assay: Phase 2 multicenter trial, scalp hair growth efficacy (DIA: TAHC, TAHW, TAHD; SSA, IGA, GPR); format: in vivo, human
Procedure: (§1) In a phase 2 multicenter trial, men 18-49 years of age with mild to moderate androgenic alopecia (AGA) were randomized in a 1:1:1:1:1 ratio to receive in a double-blind manner bimatoprost (BIM) 0.3%, 0.1%, 0.03%, or vehicle applied once daily, or open label over-the-counter minoxidil 5% solution (MIN) applied twice daily to the vertex area of the scalp for 6 months. Subjects were evaluated every 2 months during treatment and at 2 months after completing treatment. The BIM formulations used in this study were as described in Table 3 above.
The following assessments were made with digital image analysis (DIA; macrophotographs of a prespecified 1-cm^2 circular area at the anterior leading edge of the vertex thinning area of the scalp identified by microdot tattoo) using customized validated software: Target Area Hair Count (TAHC) measured in terminal hairs/cm^2; Target Area Hair Width (TAHW) measured in mm/cm^2; and, Target Area Hair Darkness (TAHD) measured in intensity units;
Co-primary efficacy endpoints measured included the change from baseline in TAHC and the SSA of change in scalp hair growth. Secondary efficacy endpoints included changes from baseline in TAHW and TAHD, and IGA/GPR of changes in scalp hair growth. […]

[2] = system: men with mild to moderate androgenic alopecia (AGA); assay: Phase 2 multicenter trial, safety (treatment-related adverse events, clinical laboratory, vital signs, ECGs, physical examinations); format: in vivo, human
Procedure: as §1
Safety measures included adverse event monitoring, local tolerability assessment, clinical laboratory testing, vital signs, 12-lead electrocardiograms (ECGs), and physical examinations.
Percent changes from baseline in TAHC, TAHW, and TAHD were analyzed using the Wilcoxon rank-sum test. Frequency distributions of SSA, IGA, and GPR scores were analyzed using a Cochran-Mantel-Haenszel test stratified for age group (18-34 vs 35-49 years), and missing data were imputed to month 6 using a last-observation-carried-forward approach. Safety measures were evaluated in all subjects who received study medication; among-group and pairwise comparisons of the incidence of adverse events were performed using a chi-square or Fisher's exact test

CCNC(=O)CCC/C=C\C[C@@H]1[C@@H](/C=C/[C@@H](O)CCc2ccccc2)[C@H](O)C[C@@H]1O [bimatoprost, cyclopentane N-ethyl heptanamide-5-cis-2-(3α-hydroxy-5-phenyl-1-trans-pentenyl)-3,5-dihy-droxy, [1α,2β,3α,5α]]
distribution of SSA (Subject Self Assessment) scores versus vehicle, in words ([1]; month 6): did not differ | changes in TAHC and TAHW versus vehicle, in words ([1]; two months after stopping treatment): no longer significantly different from vehicle | incidence of treatment-related adverse events, in words ([2]; compared with vehicle and minoxidil): slightly higher with bimatoprost compared with vehicle, but lower than the rate with minoxidil | changes in clinical laboratory parameters, vital signs, ECGs, or physical examinations, in words ([2]; human, in vivo): no clinically meaningful or dose-dependent changes | safety and tolerability profile, in words ([2]; human, in vivo): consistent with that of an established topical treatment for scalp hair growth

From patent US9849140B2, “Topical compositions comprising bimatoprost and methods for stimulating hair growth therewith” (Allergan, Inc., priority 2009, dated 2017)
